Where two headings read alike, the source gives them in different places.
Test system: potato leaves
Settings: for damage on Aug. 8, 2022 (rating score) / damage on Aug. 16, 2022 (rating score) / damage on Aug. 22, 2022 (rating score): treatment on Aug. 5, 2022, Braunschweig, score 0-10, * p < 0.05 vs untreated
Procedure: In addition to the direct control of weeds in arable farming and on non-crop land, the use of sodium saccharin for desiccation of potatoes was examined. Thus, the following variants were tested in a field test (soil type: sandy loam): (a) untreated, (b) 160 g/l and (c) 320 g/l sodium saccharin. In this example, the addition of an additive was deliberately avoided in order to assess the specific effect of sodium saccharin. The experimental design was a fully randomized block design with 3 replicates and a plot size of 2.25 m^2.
In each case, a row of potatoes 3 m in length was applied using a 5 l hand-held sprayer (®Gloria) with a conventional annular nozzle at a pressure of 3-4 bar. As a result, the degree of damage was recorded in the form of the following rating score.
Score (damage) of the potato leaves after treatment with Sodium saccharin (treatment on Aug. 5, 2022, Braunschweig, conventional cultivation)

## O=C1NS(=O)(=O)c2ccccc21.[Na] [Sodium saccharin, sodium saccharin]
160 g/l, no additive
  damage on Aug. 8, 2022 (rating score): 1.3*
  damage on Aug. 16, 2022 (rating score): 5.3*
  damage on Aug. 22, 2022 (rating score): 8.3*
320 g/l, no additive
  damage on Aug. 8, 2022 (rating score): 3.3*
  damage on Aug. 16, 2022 (rating score): 7.7*
  damage on Aug. 22, 2022 (rating score): 9.3*
Field test, 160 g/l and 320 g/l, no additive
  desiccation of potato leaves (trend in words): sufficiently desiccated
Low concentration (160 g/l), after 17 days
  desiccation of potato leaves (in words): sufficient desiccation

Source: US20250386825A1, “Formulation for Applying to Vegetation” (Okipa Ltd, priority 2022, published 2025)
